Patent US11648222B2, “Use of CYP26-resistant RAR alpha selective agonists in the treatment of cancer” (Io Therapeutics, Inc., priority 2015, dated 2023)

Experiments:
[1] = test system: MM cells; assay: Surface CD138 expression of MM cells by flow cytometry; type: cell-based, human
Procedure: (§1) Coculture experiments. 24-well plates were coated with 0.1% gelatin in PBS for 30 min at 37° C. The gelatin solution was removed, and the stromal cells were cultured overnight at a density of 5×10^4 cells/well to obtain a confluent monolayer. At that time, MM cell lines or primary MM cells (1×10^5 in 2 ml) were added to the stroma cultures. The stroma cocultures were incubated at 37° C. in RPMI containing 10% FCS, L-glutamine, and P/S, with or without AGN19194310 (1 μM for 5 days), R115866 (1 μM for 5 days), IRX5183 (1 μM for 5 days), or BTZ (2.5 nM for 48 hr).
Flow cytometry. Following treatment, MM cells were collected, washed with PBS, and stained for 15 min at room temperature with phycoerythrin-conjugated (PE-conjugated) anti-CD138. Cells were washed to remove unbound antibody and evaluated in a FACSCalibur system (BD Biosciences). Stromal cells were identified by GFP expression, and viable cells were identified using 7-aminoactinomycin D (7-AAD). To calculate cell numbers, live GFP-cells were normalized to calibration beads.

[2] = test system: MM H929 cell lines and MM CD138+ primary cells; assay: qRT-PCR of B cell and PC markers in MM cells with or without BM stroma coculture; type: cell-based, human; settings: for mRNA expression of B cell and PC markers (BCL6, BLIMP1, XBP1s, CHOP): compound 1 μM for 5 days; for expression of differentiation markers by qRT-PCR or flow cytometry: liquid conditions versus BM stroma
Procedure: Cell cultures. All cell lines were purchased from the American Type Culture Collection. H929, MM1s, and U266 cells were cultured in RPMI 1640 with 10% FCS (Sigma-Aldrich), 2 mM L-glutamine, and 100 μg/ml penicillin-streptomycin (P/S). OP-9 cells were cultured in α-MEM, 20% FCS, L-glutamine, and P/S. Cell lines were authenticated by short-tandem repeat profiling.
Primary MM cells were obtained from patients with newly diagnosed or relapsed MM under an IRB-approved protocol at The Johns Hopkins University. Briefly, mononuclear cells were isolated from fresh BM aspirates by density gradient centrifugation (Ficoll-Paque); CD138+ cells were then selected via magnetic beads and columns and incubated in RPMI 1640, 10% FCS, L-glutamine, and P/S at 37° C.
as §1
(§2) qRT-PCR. Total RNA was extracted using the RNeasy Mini Kit (QIAGEN) according to the manufacturer's instructions. cDNA was synthesized by reverse transcription using the iScript cDNA Synthesis Kit (Bio-Rad). qRT-PCR was performed with iTaq SYBR Green Supermix (Bio-Rad) using sequence specific primers. Gene expression was normalized to GAPDH, and relative quantification was calculated using ΔΔCt. All experiments were performed in duplicate and run on the Bio-Rad CFX96 machine.

[3] = test system: MM cell lines and MM CD138+ primary cells; assay: BTZ sensitivity (clonogenic or cellular recovery) of MM cells after incubation with BM stroma; type: cell-based, human; settings: for effect on stroma-induced BTZ resistance: stroma coculture with compound 1 μM 5 days
Procedure: as §1
Mobilization experiments. MM cells were separated from BM stromal cells by gently pipetting several times around the well. Detached cells were centrifuged, resuspended in fresh media, and incubated in a 24-well plate for 1 hr at 37° C. During this short incubation period, contaminating stromal cells attached to the well, while MM cells remained in suspension. MM cells were then recovered by gently pipetting. This protocol was used for qRT-PCR and CFU coculture experiments. The purity achieved using this protocol was confirmed by flow cytometry to be 98%-99% MM cells and less than 2% contaminating stroma.
Clonogenic assays. After treatment, MM cells were collected, washed with PBS, and plated at a density of 5,000 cells/ml in 1 ml of 1.32% methylcellulose supplemented with 30% FBS, 10% BSA, L-glutamine, P/S, and 0.1 mM p-ME. Cells were plated in triplicate in 35-mm culture dishes, incubated at 37° C., and scored for the presence of colonies 14 days later.

[4] = test system: FLT3/ITD acute myeloid leukemia (AML) cells; settings: recent studies; cited from earlier work
[5] = test system: OCI-AML 3, Kasumi-1 and APL NB4 cells; assay: Clonogenic growth of AML cell lines in the presence or absence of stroma; type: cell-based; settings: for clonogenic growth (CFU) compared to control: off and on stroma, NB4: 10^-7 M IRX5183, 10^-8 M AM80, OCI-AML3, Kasumi-1: 10^-6 M IRX5183, 10^-7 M AM80; for clonogenic growth: presence or absence of stroma
Procedure: The BM stroma, which expresses inducibly high levels of CYP26, metabolically inactivates ATRA and provides a protected environment for AML cancer stem cells. Synthetic, CYP26-resistant RARα agonists, such as IRX5183 and AM80, should be able to bypass stroma-mediated protection of AML cells and differentiate the cancer stem cells resident in the protected environment of bone marrow niche. To test these hypotheses, clonogenic growth experiments were conducted in the non-APL AML cell lines OCI-AML 3 and Kasumi-1 and APL NB4 cells, which were treated with ATRA, IRX5183, and AM80 in the presence or absence of stroma.

[6] = test system: non-APL AML cells; settings: in vitro; cited from earlier work
[7] = test system: AML; settings: patients; cited from earlier work
[8] = test system: H929 luciferase+ (Luc+) cells; assay: Systemic MM xenograft, bioluminescence imaging; type: in vivo, NSG mice; settings: 4 weeks; for tumor burden (bioluminescence): monotherapy, BTZ 0.5 mg/kg i.p. twice weekly or IRX 10 mg/kg once daily
Procedure: For the systemic MM model, 2×10^6 Luc+/GFP+H929 cells were injected via the tail vein into 16-week-old male NSG mice. After engraftment, as determined by an exponential increase in bioluminescence, mice were treated with BTZ (0.5 mg/kg i.p.) twice weekly and with IRX (10 mg/kg) once daily. Tumor burden was assessed by bioluminescence, as above.
To test whether retinoids can enhance BTZ activity in MM, a systemic MM xenograft was developed by injecting 2×10^6 H929 luciferase+(Luc+) cells via the tail vein of nonobese, diabetic, severe combined immunodeficiency IL-2 receptor γ-KO (NSG) mice. The animals were randomized to receive IRX, BTZ, or a combination of both, and disease burden was followed weekly by bioluminescence imaging (FIG. 4).

[9] = test system: H929 Luc+ cells with WT or Smo-KO stroma; assay: Subcutaneous xenograft model of MM-niche interactions (WT or Smo-KO stroma); type: in vivo, NSG mice
Procedure: Mouse xenografts. 1×10^6 H929 Luc+ cells and 1×10^6 mouse BM stromal cells were resuspended in 100 μl Matrigel, diluted with RPMI (1:1), and injected subcutaneously into 16-week-old male NSG mice. After 4 days, treatment with BTZ (0.5 mg/kg i.p. twice weekly) and IRX (10 mg/kg i.p. daily) was initiated. Tumor burden was assessed by bioluminescence using the In Vivo Imaging System (PerkinElmer). For imaging, mice were exposed to 120 mg/kg D-luciferin via intraperitoneal injection […] before imaging and were anesthetized using isoflurane. Images were analyzed with Living Image Software, version 2.5 (PerkinElmer), and data were quantified as photons/second.
To study to what extent an RA-low environment created by the BM stroma and enhanced by MM cells via paracrine Hedgehog signaling contributes to BTZ resistance, a xenograft model of MM-niche interactions was developed. Each mouse carried 2 subcutaneous tumors consisting of H929 Luc+ cells and either WT (anterior tumors) or Smo-KO stroma (posterior tumors). Mice were treated with IRX (10 mg/kg i.p. daily), BTZ (0.5 mg/kg i.p. twice weekly), or a combination of both. The growth of tumors bearing WT or Smo-KO stroma was not different in untreated or IRX-treated groups (FIGS. 7 and 8). […] While some tumors in the treatment group receiving combined IRX and BTZ appeared to have regressed completely, even after anatomical study, this was not the case for all the mice in this group.

[10] = test system: BM stromal cells cocultured with MM cells; assay: Stromal Cyp26a1 upregulation by MM cells in coculture; type: cell-based, mouse; settings: SMO inhibitor in coculture
Procedure: as §1, §2
To confirm the role of paracrine Hedgehog on this interaction, smoothened (Smo), a membrane receptor that transduces SHH signaling, was knocked out at the genomic level in the mesenchymal compartment. For this, BM mesenchymal cells derived from Smo^fl/fl mice were transduced with a retroviral vector encoding Cre recombinase (Smo-KO stroma). […]

[11] = test system: relapse/refractory MM patients; settings: in combination with BTZ; cited from earlier work
[12] = test system: BM stromal cells; assay: Effect of soluble factors on CYP26A1 expression in BM stromal cells; type: cell-based; settings: soluble factor added to BM stromal cells
Procedure: as §2

[13] = BM stromal cell cocultures incubated with compound

CCc1ccc(C2=CC(C)(C)Sc3ccc(C#Cc4ccc(C(=O)O)cc4)cc32)cc1 [AGN194310]
surface CD138 expression ([1]; absence of stroma, incubation with compound): markedly decreased | mRNA expression of B cell and PC markers (BCL6, BLIMP1, XBP1s, CHOP) ([2]; absence of stroma (Liquid)): mimicked the changes induced by BM stromal cells | effect on BTZ sensitivity ([3]; absence of stroma, compound 1 μM 5 days, then BTZ): decreasing BTZ sensitivity

CC1(C)CCC(C)(C)c2cc(NC(=O)c3ccc(C(=O)O)cc3)ccc21 [AM80, 4-[(5,6,7,8-tetrahydro-5,5,8,8-tetramethyl-2-naphthalenyl)carbamoyl]benzoic acid]
differentiation and sensitivity to FLT3 inhibitors [4]: differentiates FMS-like tyrosine kinase 3/internal tandem duplication (FLT3/ITD) acute myeloid leukemia (AML) cells and increase their sensitivity to FLT3 inhibitors | clonogenic growth (CFU) compared to control [5]: decrease in clonogenic growth compared to control | clonogenic growth [5]: inhibited clonogenic growth in the presence of stroma but not as effectively as IRX5183

CC1=C(/C=C/C(C)=C/C=C/C(C)=C/C(=O)O)C(C)(C)CCC1 [ATRA, All-trans retinoic acid]
clonogenic growth [5]: inhibited clonogenic growth only in the absence of stroma | differentiation and apoptosis [6]: causes terminal differentiation and apoptosis | clinical effectiveness [7]: clinically ineffective

CC(C)C[C@H](NC(=O)[C@H](Cc1ccccc1)NC(=O)c1cnccn1)B(O)O [BTZ, bortezomib]
tumor burden (bioluminescence) [8]: decreased tumor growth compared with untreated controls | tumor response (bioluminescence) ([9]; tumors carrying Smo-KO stroma, BTZ 0.5 mg/kg i.p. twice weekly): significant response | tumor response (bioluminescence) ([9]; tumors with WT stroma, BTZ 0.5 mg/kg i.p. twice weekly): refractory to BTZ treatment | BTZ resistance after separation from BM stroma ([3]; H929 cells, 5-day stroma coculture, fresh media 0 to 48 hr, then BTZ): remained partially resistant to BTZ for up to 48 hr following detachment from stroma | sensitivity of MM cells to BTZ ([3]; Smo-KO stroma compared with WT stroma): increased sensitivity to BTZ | sensitivity of MM cells to BTZ ([3]; absence of BM stroma (liquid), BTZ 2.5 nM 48 hr): highly sensitive to BTZ | sensitivity of MM cells to BTZ ([3]; after 5 days incubation with BM stroma, BTZ 2.5 nM 48 hr): incubation with BM stroma induced BTZ resistance

CC1(C)CCC(C)(C)c2c1cc(C(=O)Nc1cc(F)c(C(=O)O)c(F)c1)c(O)c2Cl [IRX5183]
disease burden (bioluminescence) ([8]; IRX 10 mg/kg daily combined with BTZ 0.5 mg/kg twice weekly): significant (P<0.01) decrease in disease burden | tumor burden (bioluminescence) [8]: decrease in tumor burden compared with untreated mice | growth of tumors bearing WT versus Smo-KO stroma ([9]; IRX 10 mg/kg i.p. daily alone): not different | tumor response (bioluminescence) ([9]; combination of IRX 10 mg/kg daily and BTZ 0.5 mg/kg twice weekly, WT and Smo-KO stroma): significant and equivalent response, regardless of the phenotype of the stromal compartment | surface CD138 expression [1, 13]: restored CD138 expression | expression of differentiation markers by qRT-PCR or flow cytometry [2]: induced comparable changes, irrespective of the presence or absence of BM stroma | mRNA expression of B cell and PC markers (BCL6, BLIMP1, XBP1s, CHOP) ([2]; stroma cocultures): restored all markers to levels comparable to those of liquid control conditions | clonogenic growth (CFU) compared to control [5]: decrease in clonogenic growth compared to control | clonogenic growth [5]: inhibited clonogenic growth to a similar extent in the presence or absence of stroma | effect on stroma-induced BTZ resistance ([3]; then BTZ): overcome

CCC(CC)C(c1ccc(Nc2nc3ccccc3s2)cc1)n1cncn1 (centres unmarked) [R115866]
surface CD138 expression [1, 13]: restored CD138 expression | expression of differentiation markers by qRT-PCR or flow cytometry [2]: did not significantly affect the expression of differentiation markers | mRNA expression of B cell and PC markers (BCL6, BLIMP1, XBP1s, CHOP) ([2]; stroma cocultures): restored all markers to levels comparable to those of liquid control conditions | effect on BTZ resistance after separation from BM stroma ([3]; H929 cells, coculture treated with compound 1 μM before separation): prevented the development of a BTZ-resistant phenotype | effect on stroma-induced BTZ resistance ([3]; then BTZ): overcome

CC1=C2C[C@H]3[C@@H](CC=C4C[C@@H](O)CC[C@@]43C)[C@@H]2CC[C@]12O[C@@H]1C[C@H](C)CN[C@H]1[C@H]2C [cyclopamine]
stromal Cyp26a1 upregulation by MM cells [10]: partially overcame stromal Cyp26a1 upregulation by MM cells

c1cc(CN2CCCNCCNCCCNCC2)ccc1CN1CCCNCCNCCCNCC1 [plerixafor]
response rates [11]: improved response rates

IL-6: cytokine, soluble factor produced by MM cells
upregulation of CYP26A1 on BM stromal cells [12]: no significant effects

TNF-α
upregulation of CYP26A1 on BM stromal cells [12]: no significant effects
